The text below walks through data of ChEMBL document CHEMBL1127187, “Semisynthetic modification of hygromycin A. 2. synthesis and antibacterial activity of aryl analogs” (1993).

≈ marks a conversion by molar mass, not a printed value. A value given as a limit tells only on which side of the number the result lay.

Common to all, as to format: functional
The subject of assay [1] is Brachyspira hyodysenteriae. Description: Antibacterial activity against Serpulina (Treponema) hyodysenteriae (the causative organism of swine dysentery).
A further assay deals with Pasteurella multocida. Description: Antibacterial activity against Pasteurella multocida (an important animal respiratory pathogen).
Assay [2] deals with Brachyspira hyodysenteriae. The assay can be described thus: Compound was tested for antibacterial activity against Serpulina (Treponema hyodysenteriae (the causative organism of swine dysentery).

Turning to `C=CCOc1ccc(/C=C(/C)C(=O)N[C@@H]2[C@H](O)[C@@H](O)[C@H]3OCO[C@H]3[C@@H]2O)cc1NC`, the MIC (in assay [1]; with Pasteurella multocida) was over 200 µg/mL each time.

For `C=CCOc1ccc(/C=C(/C)C(=O)N[C@@H]2[C@H](O)[C@@H](O)[C@H]3OCO[C@H]3[C@@H]2O)cc1NC(C)=O`, the MIC (in assay [1]; in the assay on Pasteurella multocida) was over 200 µg/mL throughout.

Consider `C=CCOc1c(O)cc(/C=C(/C)C(=O)N[C@@H]2[C@H](O)[C@@H](O)[C@H]3OCO[C@H]3[C@@H]2O)cc1C#N`, for which the minimal inhibitory concentration (MIC) (in assay [1]; with Pasteurella multocida) was over 200 µg/mL in each case.

Take `C=CCOc1c(O)cc(/C=C(/C)C(=O)N[C@@H]2[C@H](O)[C@@H](O)[C@H]3OCOC3[C@@H]2O)cc1OC` (single isomer, unassigned): the MIC (in assay [1]; against Pasteurella multocida) was over 200 µg/mL in each case.

As for `C=CCOc1c(O)cc(/C=C(/C)C(=O)N[C@@H]2[C@H](O)[C@@H](O)[C@H]3OCO[C@H]3[C@@H]2O)cc1Br`, the minimum inhibitory concentration (MIC) (in assay [1]; in the assay with Pasteurella multocida) was over 200 µg/mL in each case.

Regarding `C=CCOc1ccc(/C=C(/C)C(=O)N[C@@H]2[C@H](O)[C@@H](O)[C@H]3OCO[C@H]3[C@@H]2O)cc1F`, the minimal inhibitory concentration (MIC) (usually the lowest concentration that inhibits growth of the organism) in assay [1] was found to be 1.56 µg/mL (≈ 3.81 µM); in the assay on Pasteurella multocida, 50 µg/mL (≈ 122 µM).

As for `C=CCOc1ccc(/C=C(/C)C(=O)N[C@@H]2[C@H](O)[C@@H](O)[C@H]3OCO[C@H]3[C@@H]2O)cc1C`, the minimal inhibitory concentration (MIC) in assay [1] is 6.25 µg/mL (≈ 15.4 µM); against Pasteurella multocida it was 50 µg/mL (≈ 123 µM).

The compound `C=CCOc1ccc(/C=C(/C)C(=O)N[C@@H]2[C@H](O)[C@@H](O)[C@H]3OCO[C@H]3[C@@H]2O)cc1Cl` had a minimum inhibitory concentration (MIC) in assay [1] of 3.13 µg/mL (≈ 7.35 µM).

With `C=CCOc1cc(F)c(/C=C(/C)C(=O)N[C@@H]2[C@H](O)[C@@H](O)[C@H]3OCO[C@H]3[C@@H]2O)cc1F`, the MIC in assay [1] stood at 1.56 µg/mL (≈ 3.65 µM); with Pasteurella multocida it was 25 µg/mL (≈ 58.5 µM).

Regarding `C=CCOc1c(C)cc(/C=C(/C)C(=O)N[C@@H]2[C@H](O)[C@@H](O)[C@H]3OCO[C@H]3[C@@H]2O)cc1C`, the MIC (in assay [1]; in the assay on Pasteurella multocida) was over 200 µg/mL throughout.

Consider `C=CCOc1ccc(/C=C(/C)C(=O)N[C@@H]2[C@H](O)[C@@H](O)[C@H]3OCO[C@H]3[C@@H]2O)cc1Br`, for which the minimal inhibitory concentration (MIC) in assay [1] is 12.5 µg/mL (≈ 26.6 µM); against Pasteurella multocida it was over 200 µg/mL.

For the compound `C=CCOc1ccc(/C=C(\C)C(=O)N[C@@H]2[C@H](O)[C@@H](O)[C@H]3OCO[C@H]3[C@@H]2O)c(OC)c1`, the minimal inhibitory concentration (MIC) (in assay [1]; with Pasteurella multocida) was over 200 µg/mL throughout.

For `C=CCOc1c(F)cc(/C=C(\C)C(=O)N[C@@H]2[C@H](O)[C@@H](O)[C@H]3OCO[C@H]3[C@@H]2O)c(F)c1O`, the values for the MIC (in assay [1]; with Pasteurella multocida) were 50 µg/mL (≈ 113 µM) and 100 µg/mL (≈ 226 µM), respectively.

On to `C=CCOc1ccc(/C=C(/C)C(=O)N[C@@H]2[C@H](O)[C@@H](O)[C@H]3OCO[C@H]3[C@@H]2O)cc1CO`, for which 100 µg/mL (≈ 237 µM) was the least that counted as inhibitory with Pasteurella multocida (MIC).

For `C=CCOc1ccc(/C=C(/C)C(=O)N[C@@H]2[C@H](O)[C@@H](O)[C@H]3OCO[C@H]3[C@@H]2O)cc1N`, the minimum inhibitory concentration (MIC) (in assay [1]; with Pasteurella multocida) was 0.78 µg/mL (≈ 1.92 µM) in each case.

For `C=CCOc1ccc(/C=C(\C)C(=O)N[C@@H]2[C@H](O)[C@@H](O)[C@H]3OCO[C@H]3[C@@H]2O)c(F)c1F`, the minimum inhibitory concentration (MIC) in assay [1] is 25 µg/mL (≈ 58.5 µM); with Pasteurella multocida it was over 200 µg/mL.

On to `C=CCOc1ccc(/C=C(/C)C(=O)N[C@@H]2[C@H](O)[C@@H](O)[C@H]3OCO[C@H]3[C@@H]2O)cc1`, for which the MIC in assay [1] turned out to be 6.25 µg/mL (≈ 16 µM); in the assay with Pasteurella multocida, 50 µg/mL (≈ 128 µM).

On to `C=CCOc1ccc(/C=C(/C)C(=O)N[C@@H]2[C@H](O)[C@@H](O)[C@H]3OCO[C@H]3[C@@H]2O)cc1OC`, for which the MIC (in assay [1]; against Pasteurella multocida) was over 200 µg/mL each time.

Take `C=CCOc1ccc(/C=C(\C)C(=O)N[C@@H]2[C@H](O)[C@@H](O)[C@H]3OCO[C@H]3[C@@H]2O)c(Cl)c1`: the MIC (in assay [1]; in the assay with Pasteurella multocida) was over 200 µg/mL throughout.

As for `C=CCOc1ccc(/C=C(\C)C(=O)N[C@@H]2[C@H](O)[C@@H](O)[C@H]3OCO[C@H]3[C@@H]2O)c(F)c1`, the MIC came out at 3.13 µg/mL (≈ 7.65 µM) in assay [1] and 25 µg/mL (≈ 61.1 µM) against Pasteurella multocida.

As to `C=CCOc1c(F)cc(/C=C(/C)C(=O)N[C@@H]2[C@H](O)[C@@H](O)[C@H]3OCO[C@H]3[C@@H]2O)cc1F`, the results for the minimal inhibitory concentration (MIC) (in assay [1]; against Pasteurella multocida) were 25 µg/mL (≈ 58.5 µM) and over 200 µg/mL, respectively.

Regarding `CC(=O)[C@H]1O[C@@H](Oc2ccc(C=C(C)C(=O)N[C@@H]3[C@H](O)[C@@H](O)[C@H]4OCO[C@H]4[C@@H]3O)cc2O)[C@@H](O)[C@@H]1O` [HYGROMYCIN A], the MIC (in assay [1]; in the assay on Pasteurella multocida) was 0.78 µg/mL (≈ 1.52 µM) each time.

As to `C=CCOc1ccc(/C=C(/C)C(=O)N[C@@H]2[C@H](O)[C@@H](O)[C@H]3OCO[C@H]3[C@@H]2O)cc1I`, in assay [1], the MIC was 100 µg/mL (≈ 193 µM).

For the compound `C=CCOc1ccc(/C=C(/C)C(=O)N[C@@H]2[C@H](O)[C@@H](O)[C@H]3OCO[C@H]3[C@@H]2O)cc1O`, the MIC (in assay [2]; in the assay with Pasteurella multocida) was 0.78 µg/mL (≈ 1.91 µM) throughout.

As for `C=CCOc1ccc(/C=C(/C)C(=O)N[C@@H]2[C@H](O)[C@@H](O)[C@H]3OCO[C@H]3[C@@H]2O)cc1C(=O)O`, the MIC (in assay [1]; against Pasteurella multocida) was over 200 µg/mL in each case.

Take `C=CCOc1c(Br)cc(/C=C(/C)C(=O)N[C@@H]2[C@H](O)[C@@H](O)[C@H]3OCO[C@H]3[C@@H]2O)cc1Br`: the minimal inhibitory concentration (MIC) (in assay [1]; in the assay on Pasteurella multocida) was over 200 µg/mL in each case.

In the case of `C=CCOc1ccc(/C=C(\C)C(=O)N[C@@H]2[C@H](O)[C@@H](O)[C@H]3OCO[C@H]3[C@@H]2O)cc1CNCC`, the MIC with Pasteurella multocida is over 200 µg/mL.

For `C=CCOc1ccc(/C=C(/C)C(=O)N[C@@H]2[C@H](O)[C@@H](O)[C@H]3OCO[C@H]3[C@@H]2O)cc1NS(C)(=O)=O`, the MIC (in assay [1]; in the assay on Pasteurella multocida) was over 200 µg/mL each time.
